This note sets out measurements from patent US12697748B2, “Wood treatment compositions having antimicrobial properties” (Société en Commandite Prolam, priority 2022, dated 2026).

What all share (type): cell-based
For assay [1], the system named is Escherichia coli ATCC 11229. Kind of assay: Growth inhibition zone of treated wood pieces on TSA nutrient gel. The note with it: 24 h at 36° C., listed as Negative control. The method, then:
(§1) Cubic pieces of Maplewood of about 3 mm of thickness with a surface of about 1 cm^2 were provided. For Sample A, the pieces were heated on a heating plate at 230° C. for about 45 seconds, and dipped into the tannin solution for about 25 seconds, again heated on the heating plate for about 45 seconds and dipped in paraffin at 65° C. for about 25 seconds. For Sample B, the pieces were heated on a heating plate for about 45 seconds, and dipped into the tannin solution for about 25 seconds. The impregnation rate was calculated to be around 645 g/m^2 (60 g/pi^2).
(§2) The growth inhibition for Escherichia coli ATCC 11229 and Staphylococcus aureus ATCC 6538 was first determined. A culture of each microorganism was spread at the surface of Tryptic Soy agar (TSA) nutrient gel. Treated wood was cut into cubic pieces of about 3 mm of thickness with a surface of about 1 cm^2, as prepared above. Each piece was deposited on the nutrient gel, treated face down, contacting the gel, and using two pieces for each microorganism. The petri dishes containing the nutrient gel were closed and incubated for 24 h at 36° C. Sterile filters moistened with demineralized water and with a mercury chloride 0.018 mol/L solution were used and tested as negative and positive controls, respectively. After the incubation period, the growth inhibition zone was measured, and the incubation pursued for three (3) additional days to evaluate the growth under the wooden cubes after the prolonged incubation.
(§3) Cubic pieces of Maplewood of about 1 cm of thickness with a surface of about […] were provided. For Samples 1 and 2, the pieces were heated on a heating plate at 230° C. for about 45 seconds, and dipped into the tannin solution for about 25 seconds, again heated on the heating plate for about 45 seconds and dipped in paraffin at 65° C. for about 25 seconds. For Samples 4 and 5, the pieces were heated on a heating plate for about 45 seconds, and dipped into the tannin solution for about 25 seconds. The impregnation rate was calculated to be around 301 g/m^2 (28 g/pi^2). […]

Assay [2] relates to Staphylococcus aureus ATCC 6538. The description is as above. The note with it: 24 h at 36° C. As for the experimental part: as §1, §2, §3
Assay [3] has as its system Escherichia coli ATCC 11229. The assay is described as follows: Qualitative antibacterial effect, inhibition zone after 48 h (Example 6). The note with it: filter (diameter 10 mm). As for the experimental part: Cubic pieces of Maplewood of about 1 cm of thickness with a surface of about […] were provided. For Sample Y, the pieces were heated on a heating plate at 230° C. for about 45 seconds, and dipped into the tannin solution for about 25 seconds, again heated on the heating plate for about 45 seconds and dipped in paraffin at 65° C. for about 25 seconds. For Sample X, the pieces were heated on a heating plate for about 45 seconds, and dipped into the tannin solution for about 25 seconds.
After the above impregnation, manual vaporization of the Tanac Weibull™ solution was also conducted. Samples X and Y were sprayed five times each, with 24 h between each spray.
The growth inhibition for Escherichia coli ATCC 11229 was determined. A culture of the microorganism was spread at the surface of Tryptic Soy agar (TSA) nutrient gel. Treated wood cubic pieces of about 3 mm of thickness with a surface of about 1 cm^2, as prepared above. The wooden pieces of Sample X (duplicated) were then rehumidified with water, Sample Y was not rehumidified and two Samples Z (no treated) were used: as is and rehumidified. Each piece was deposited on the nutrient gel, treated face down, contacting the gel. […] After the incubation period, the growth inhibition zone was measured and the incubation pursued at 48 h to evaluate the growth under the wooden cubes after the prolonged incubation.

`[Cl][Hg][Cl]` [Positive control, mercury chloride]: the “Diameter of the inhibition zone” value in assay [1] is 23 mm; in assay [2], 32 mm; in assay [2] (listed as Negative control) it was 25 mm. In addition, the “Diameter of the inhibition zone after 48 h” value in assay [3] stood at 22 mm.
